From patent US20180296487A1, “SUSTAINED RELEASE INJECTABLE NEUROSTEROID FORMULATIONS” (MARINUS PHARMACEUTICALS, INC., priority 2017, published 2018)
Like-named read-outs stand apart in the source and are kept apart here.

How the values were obtained:
[1] = cited from earlier work

Row | Compound | half-life ([1]; human plasma) | solubility in water (Solubility in water) | half-life ([1]; human plasma following oral administration) | Tmax ([1]; therapeutic blood levels are reached quickly)
1 | CC(=O)[C@H]1CC[C@H]2[C@@H]3CC[C@H]4C[C@H](O)CC[C@]4(C)[C@H]3CC[C@]12C [Allopregnanolone, 3α,5α-tetrahydroprogesterone] | about 45 minutes |  |  | 
2 | CC(=O)[C@H]1CC[C@H]2[C@@H]3CC[C@H]4C[C@](C)(O)CC[C@]4(C)[C@H]3CC[C@]12C [Ganaxolone, 3α-hydroxy, 3β-methyl-5α-pregnan-20-one] |  | < 1 µg/mL | approximately 20 hours | short
